Source: patent US9839642B2, “Beta-tetrazolyl-propionic acids as metallo-beta-lactamase inhibitors” (priority 2014, dated 2017)
Read-outs that look alike come from different tables or passages of the source.

Columns and labels:
IMP-1 = IMP-1 (Serratia marcescens, UniProt P52699); experiment: Enzyme activity: determination of IC50, fluorescence assay with CCF2-FA substrate; type: biochemical; conditions: CCF2-FA 1.25 μM, 2 hours at 25° C., read-out: IMP1 IC50
Method in brief: (§1)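 Read-out: fluorescence, ex 405 nm / em 460 nm, after 2 h at 25° C with 1.25 μM CCF2-FA. Buffer 100 mM KH2PO4 pH 7, 0.005% Tween-20, 10 μM ZnSO4; enzyme 1 pM NDM-1, 2 pM IMP-1, 30 pM VIM-1. IC50 by 4-parameter fit.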

NDM-1 = NDM-1 (Klebsiella pneumoniae, UniProt C7C422); experiment: as above; type: biochemical; conditions: CCF2-FA 1.25 μM, 2 hours at 25° C.
Method in brief: as §1

VIM-1 = VIM-1 (Pseudomonas aeruginosa, UniProt A0A0F7KYQ8); experiment: as above; type: biochemical; conditions: CCF2-FA 1.25 μM, 2 hours at 25° C., read-out: VIM1 IC50
Method in brief: as §1

[1] = test system: Escherichia coli expressing NDM-1 (CLB30016); experiment: Antibiotic potentiation activity: synergistic concentration (MITC95) with imipenem, growth by OD600; type: cell-based
Method in brief: (§2)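 Strains grown overnight at 35° C, resuspended in saline, diluted 1:100 into 1.1×CAMHB; imipenem at 1 μg/ml or 4 μg/ml with test compound 200 μM to 0.195 μM. Incubated 22 hours to 24 hours at 35° C, OD600 read; MITC95 is lowest compound concentration inhibiting 95% of growth.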

[2] = test system: Klebsiella pneumoniae expressing VIM-1 (IHMA599644); experiment: as above; type: cell-based
Method in brief: as §2

[3] = test system: Serratia marcescens expressing IMP-1 (CL5741); experiment: as above; type: cell-based
Method in brief: as §2

[4] = NDM-1 enzyme 1 pM, read-out: NDM1 IC50
[5] = E. coli CLB30016 (NDM-1), 95% inhibition of growth
[6] = K. pneumoniae IHMA599644 (VIM-1), 95% inhibition of growth
[7] = S. marcescens CL5741 (IMP-1), 95% inhibition of growth
[8] = enzyme 1 pM, read-out: NDM1 IC50
[9] = 95% inhibition of bacterial growth, strain CLB30016
[10] = 95% inhibition of bacterial growth, strain IHMA599644
[11] = 95% inhibition of bacterial growth, strain CL5741

Chain of NDM-1 (C7C422 29-270, looked up, species assumed): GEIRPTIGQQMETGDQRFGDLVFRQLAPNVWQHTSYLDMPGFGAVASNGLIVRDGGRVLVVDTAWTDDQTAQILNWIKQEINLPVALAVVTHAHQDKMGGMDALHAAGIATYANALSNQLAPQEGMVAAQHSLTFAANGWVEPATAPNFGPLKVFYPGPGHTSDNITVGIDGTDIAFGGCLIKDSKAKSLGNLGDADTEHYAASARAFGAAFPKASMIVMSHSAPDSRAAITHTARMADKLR
Chain of IMP-1 (P52699 19-246, looked up, species assumed): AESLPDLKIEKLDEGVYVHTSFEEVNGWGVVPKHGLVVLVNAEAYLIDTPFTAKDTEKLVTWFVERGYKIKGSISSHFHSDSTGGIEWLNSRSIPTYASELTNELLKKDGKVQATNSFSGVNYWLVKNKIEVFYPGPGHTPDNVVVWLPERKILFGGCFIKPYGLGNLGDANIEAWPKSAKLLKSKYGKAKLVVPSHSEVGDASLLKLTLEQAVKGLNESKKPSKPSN

Structure (SMILES) | IC50 (IMP-1; IMP-1 enzyme 2 pM) [µM] | IC50 (NDM-1; [4]) [µM] | IC50 (VIM-1; VIM-1 enzyme 30 pM) [µM] | NDM1 EC30016 MITC95 [1, 5] [µM] | VIM1 KP599644 MITC95 [2, 6] [µM] | IMP1 SM5741 MITC95 [3, 7] [µM] | IC50 (IMP-1; enzyme 2 pM) [µM] | IC50 (NDM-1; [8]) [µM] | IC50 (VIM-1; enzyme 30 pM) [µM] | NDM1 EC30016 MITC95 [1, 9] [µM] | VIM1 KP599644 MITC95 [2, 10] [µM] | IMP1 SM5741 MITC95 [3, 11] [µM] | IC50 (NDM-1; NDM1 IC50, enzyme 1 pM) [µM]
CCC[C@H](C(=O)O)[C@H](Cc1cccnc1)c1nnn[nH]1 [Example 264, (S)-2-((S)-2-(pyridin-3-yl)-1-(1H-tetrazol-5-yl)ethyl)pentanoic acid] | 7.1 | 0.37 | 0.016 | 2.3 | 18.8 | 100 | – | – | – | – | – | – | –
CC(C)C[C@H](C(=O)O)[C@H](Cc1ccc(C2=CCNC2)nc1)c1nn[nH]n1 [Example 181, (2S)-2-[(1S)-2-[6-(2,5-dihydro-1H-pyrrol-3-yl)pyridin-3-yl]-1-(2H-tetrazol-5-yl)ethyl]-4-methylpentanoic acid] | – | – | – | – | – | – | 4.4 | 1 | 0.017 | 38 | 75 | 100 | –
CCC[C@H](C(=O)O)[C@H](Cc1cccc(N2CCCC(O)C2)c1)c1nn[nH]n1 (stereo partly drawn) [Example 360, (2S)-2-[(1S)-2-[3-(3-hydroxypiperidin-1-yl)phenyl]-1-(2H-tetrazol-5-yl)ethyl]pentanoic acid] | 0.51 | 0.047 | 0.013 | 25 | 150 | 18.8 | – | – | – | – | – | – | –
CC(C)C[C@H](C(=O)O)[C@H](Cc1ccc(C2CCNCC2)cc1)c1nnn[nH]1 [Example 102, (S)-4-methyl-2-((S)-2-(4-(piperidin-4-yl)phenyl)-1-(1H-tetrazol-5-yl)ethyl)pentanoic acid] | – | – | – | – | – | – | 0.072 | 0.04 | 0.0053 | 12.5 | 37 | 2.3 | –
CCC[C@H](C(=O)O)[C@H](Cc1ccc(C2=CCNCC2)cn1)c1nnn[nH]1 [Example 165, (2S)-2-[(1S)-2-(1′,2′,3′,6′-tetrahydro-3,4′-bipyridin-6-yl)-1-(1H-tetrazol-5-yl)ethyl]pentanoic acid] | – | – | – | – | – | – | > 20 | – | 0.068 | 3.1 | 25 | 150 | 1.5
CCC[C@H](C(=O)[O-])[C@H](Cc1ccc(C2CC[N+](C)(C)C2)cc1)c1nnn[nH]1 (stereo partly drawn) [Example 418, (2S)-2-((1S)-2-(4-(1,1-dimethylpyrrolidin-1-ium-3-yl)phenyl)-1-(1H-tetrazol-5-yl)ethyl)pentanoate] | 1.99 | 0.405 | 0.0308 | 18.75 | 25 | 37.5 | – | – | – | – | – | – | –
Cc1ccc(C[C@H](c2nn[nH]n2)[C@H](CC(C)C)C(=O)O)cc1 [Example 53, (S)-2-((S)-1-(2H-tetrazol-5-yl)-2-(p-tolyl)ethyl)-4-methylpentanoic acid] | – | – | – | – | – | – | 0.089 | 0.037 | 0.0058 | 18.8 | 75 | 4.7 | –
CC(C)[C@H](C(=O)O)[C@H](Cc1ccc(N)nc1)c1nnn[nH]1 [Example 121, (2S,3S)-4-(6-aminopyridin-3-yl)-2-isopropyl-3-(1H-tetrazol-5-yl)butanoic acid] | – | – | – | – | – | – | 6 | 0.12 | 0.035 | 0.21 | 5.5 | 37 | –
CCC[C@H](C(=O)[O-])[C@H](Cc1ccc(C[N+](C)(C)C)cc1)c1nnn[nH]1 [Example 419, (S)-2-((S)-1-(1H-tetrazol-5-yl)-2-(4-((trimethylammonio)methyl)phenyl)ethyl)pentanoate] | 5.92 | 0.869 | 0.00551 | 6.25 | 12.5 | 50 | – | – | – | – | – | – | –
